Experimental data taken from patent US20260191835A1, “COMBINATIONS COMPRISING A MENIN-MLL INHIBITOR AND AT LEAST ONE OTHER THERAPEUTIC AGENT” (JANSSEN PHARMACEUTICA NV, priority 2022, published 2026).

System: MOLM-13 cells
Assay: In vitro proliferation (Cell Titer Glo, 6 days) of Compound 51 in combination with gilteritinib, midostaurin, idarubicin or decitabine, MOLM-13
Assay type: cell-based, human
Design: key to maxR call (synergy/antagonism), combination with Gilteritinib on MOLM-13 cell proliferation / Synergy/antagonism call (maxR test), MOLM-13 Cell Proliferation: synergy is indicated by “**”; antagonism is indicated by “*”; no asterisk: absence of any asterisk indicates an additive effect
Protocol: 3) In Vitro Proliferation—Menin-MLL Inhibitor in Combination with FLT3 Inhibitor (Gilteritinib or Midostaurin), DNA Intercalating Agent (Idarubicin) or Hypomethylating Agent (Decitabine)
The effect of Compound 51 in combination with gilteritinib, midostaurin, idarubicin or decitabine was determined in proliferation assays.
AML cell lines MOLM-13, OCI-AML3 and MV4-11 were purchased from DSMZ. MOLM-13 were grown in RPMI medium supplemented with 10% Fetal Bovine Serum (FBS) and 1% penicillin/streptomycin. MV4-11 cells were grown in IMDM medium supplemented with 10% FBS and 1% penicillin/streptomycin. OCI-AML3 cells were cultured in 80-90% alpha-MEM (with or without ribo- and deoxyribonucleosides)+10-20% FBS. All cell lines were cultured at 37° C. in 5% CO2 atmosphere.
AML cell lines (10-20×10^3 cells/well) were seeded in 96-well plates and grown for 6 days in serum (10%)-containing medium in the presence or absence of inhibitors at the indicated concentrations. Proliferation was analyzed by means of a Cell Titer Glo assay using the […] (Promega, Madison, WI, USA), according to the manufacturer's instructions. Data are mean with standard deviation from two to four independent experiments in technical triplicates.
R-based Biochemically Intuitive Generalized Loewe (BIGL) model implemented with a highest single agent (HSA) null model. Specifically, the BIGL methodology was applied to calculate drug-drug interactions (Van der Borght, K., Tourny, A., Bagdziunas, R. et al. BIGL: Biochemically Intuitive Generalized Loewe null model for prediction of the expected combined effect compatible with partial agonism and antagonism. Sci Rep 7, 17935 (2017); Thas, O., Tourny, A., Verbist, B., Hawinkel, S., Nazarov, M., Mutambanengwe, K., & Bijnens, L. Statistical detection of synergy: New methods and a comparative study. Pharmaceutical Statistics (2021)).
Synergy matrix results of the BIGL analysis of the cell line data with HSA as mean model calculated on the basis of the cellular metabolic activity using Cell Titer-Glo assay. Bootstrap confidence intervals are indicated. Effect sizes and their confidence intervals are shown. […] No significant average effect if zero is included in the interval.

[1] = Compound 51 0.01 μm, Gilteritinib 0.01 μM
[2] = Compound 51 0.05 μm + Decitabine 0.015 μM
[3] = Compound 51 0.05 μm + Decitabine 0.15 μM
[4] = Compound 51 0.05 μm + Idarubicin 0.001 μM
[5] = Compound 51 0.05 μm + Midostaurin 0.006 μM

CC(=O)N1CCC(CN2CC[C@@H](Cc3cn(-c4ccc(F)cc4C(=O)N(C)C(C)C)c4cncc(C)c34)C2)CC1 [Compound 51]
Effect size (BIGL, HSA null model), MOLM-13 Cell Proliferation (Compound 51 0.0001 μm + Idarubicin 0.0005 μM): −0.05 | Effect size (BIGL, HSA null model), MOLM-13 Cell Proliferation (Compound 51 0.0001 μm + Idarubicin 0.001 μM): −0.02 | Effect size (BIGL, HSA null model), MOLM-13 Cell Proliferation (Compound 51 0.0001 μm + Idarubicin 0.0025 μM): 0.07 | Effect size (BIGL, HSA null model), MOLM-13 Cell Proliferation (Compound 51 0.0001 μm + Idarubicin 0.005 μM): −0.1 | Effect size (BIGL, HSA null model), MOLM-13 Cell Proliferation (Compound 51 0.0001 μm + Idarubicin 0.05 μM): 0.03 | Effect size (BIGL, HSA null model), MOLM-13 Cell Proliferation (Compound 51 0.0001 μm + Idarubicin 0.5 μM): 0.02 | Effect size (BIGL, HSA null model), MOLM-13 Cell Proliferation (Compound 51 0.0001 μm + Midostaurin 0.0012 μM): −0.07 | Effect size (BIGL, HSA null model), MOLM-13 Cell Proliferation (Compound 51 0.0001 μm + Midostaurin 0.006 μM): −0.02 | Effect size (BIGL, HSA null model), MOLM-13 Cell Proliferation (Compound 51 0.0001 μm + Midostaurin 0.025 μM): 0.05 | Effect size (BIGL, HSA null model), MOLM-13 Cell Proliferation (Compound 51 0.0001 μm + Midostaurin 0.05 μM): −0.06 | Effect size (BIGL, HSA null model), MOLM-13 Cell Proliferation (Compound 51 0.0001 μm + Midostaurin 0.1 μM): −0.04 | Effect size (BIGL, HSA null model), MOLM-13 Cell Proliferation (Compound 51 0.0001 μm + Midostaurin 0.5 μM): −0.02 | Effect size (BIGL, HSA null model), MOLM-13 Cell Proliferation (Compound 51 0.001 μm + Decitabine 0.0015 μM): −0.03 | Effect size (BIGL, HSA null model), MOLM-13 Cell Proliferation (Compound 51 0.001 μm + Decitabine 0.015 μM): −0.07 | Effect size (BIGL, HSA null model), MOLM-13 Cell Proliferation (Compound 51 0.001 μm + Decitabine 0.15 μM): −0.03 | Effect size (BIGL, HSA null model), MOLM-13 Cell Proliferation (Compound 51 0.001 μm + Decitabine 1.5 μM): −0.03 | Effect size (BIGL, HSA null model), MOLM-13 Cell Proliferation (Compound 51 0.001 μm + Decitabine 3 μM): −0.02 | Effect size (BIGL, HSA null model), MOLM-13 Cell Proliferation (Compound 51 0.001 μm + Idarubicin 0.0005 μM): −0.03 | Effect size (BIGL, HSA null model), MOLM-13 Cell Proliferation (Compound 51 0.001 μm + Idarubicin 0.001 μM): −0.07 | Effect size (BIGL, HSA null model), MOLM-13 Cell Proliferation (Compound 51 0.001 μm + Idarubicin 0.0025 μM): 0.04 | Effect size (BIGL, HSA null model), MOLM-13 Cell Proliferation (Compound 51 0.001 μm + Idarubicin 0.005 μM): −0.1 | Effect size (BIGL, HSA null model), MOLM-13 Cell Proliferation (Compound 51 0.001 μm + Idarubicin 0.05 μM): 0.02 | Effect size (BIGL, HSA null model), MOLM-13 Cell Proliferation (Compound 51 0.001 μm + Idarubicin 0.5 μM): 0.02 | Effect size (BIGL, HSA null model), MOLM-13 Cell Proliferation (Compound 51 0.001 μm + Midostaurin 0.0012 μM): −0.03 | Effect size (BIGL, HSA null model), MOLM-13 Cell Proliferation (Compound 51 0.001 μm + Midostaurin 0.006 μM): −0.02 | Effect size (BIGL, HSA null model), MOLM-13 Cell Proliferation (Compound 51 0.001 μm + Midostaurin 0.025 μM): 0.07 | Effect size (BIGL, HSA null model), MOLM-13 Cell Proliferation (Compound 51 0.001 μm + Midostaurin 0.05 μM): −0.06 | Effect size (BIGL, HSA null model), MOLM-13 Cell Proliferation (Compound 51 0.001 μm + Midostaurin 0.1 μM): −0.04 | Effect size (BIGL, HSA null model), MOLM-13 Cell Proliferation (Compound 51 0.001 μm + Midostaurin 0.5 μM): −0.02 | Effect size (BIGL, HSA null model), combination with Gilteritinib on MOLM-13 cell proliferation (Compound 51 0.001 μm, Gilteritinib 0.0005 μM): −0.01 | Effect size (BIGL, HSA null model), combination with Gilteritinib on MOLM-13 cell proliferation (Compound 51 0.001 μm, Gilteritinib 0.005 μM): −0.06 | Effect size (BIGL, HSA null model), combination with Gilteritinib on MOLM-13 cell proliferation (Compound 51 0.001 μm, Gilteritinib 0.01 μM): −0.1 | Effect size (BIGL, HSA null model), combination with Gilteritinib on MOLM-13 cell proliferation (Compound 51 0.001 μm, Gilteritinib 0.05 μM): −0.02 | Effect size (BIGL, HSA null model), combination with Gilteritinib on MOLM-13 cell proliferation (Compound 51 0.001 μm, Gilteritinib 0.1 μM): 0.02 | Effect size (BIGL, HSA null model), combination with Gilteritinib on MOLM-13 cell proliferation (Compound 51 0.001 μm, Gilteritinib 1 μM): −0.01 | Effect size (BIGL, HSA null model), MOLM-13 Cell Proliferation (Compound 51 0.01 μm + Decitabine 0.0015 μM): 0 | Effect size (BIGL, HSA null model), MOLM-13 Cell Proliferation (Compound 51 0.01 μm + Decitabine 0.015 μM): −0.09 | Effect size (BIGL, HSA null model), MOLM-13 Cell Proliferation (Compound 51 0.01 μm + Decitabine 0.15 μM): −0.16 | Effect size (BIGL, HSA null model), MOLM-13 Cell Proliferation (Compound 51 0.01 μm + Decitabine 1.5 μM): −0.05 | Effect size (BIGL, HSA null model), MOLM-13 Cell Proliferation (Compound 51 0.01 μm + Decitabine 3 μM): −0.02 | Effect size (BIGL, HSA null model), MOLM-13 Cell Proliferation (Compound 51 0.01 μm + Idarubicin 0.0005 μM): −0.35 | Effect size (BIGL, HSA null model), MOLM-13 Cell Proliferation (Compound 51 0.01 μm + Idarubicin 0.001 μM): −0.73 | Effect size (BIGL, HSA null model), MOLM-13 Cell Proliferation (Compound 51 0.01 μm + Idarubicin 0.0025 μM): −0.26 | Effect size (BIGL, HSA null model), MOLM-13 Cell Proliferation (Compound 51 0.01 μm + Idarubicin 0.005 μM): −0.11 | Effect size (BIGL, HSA null model), MOLM-13 Cell Proliferation (Compound 51 0.01 μm + Idarubicin 0.05 μM): 0.02 | Effect size (BIGL, HSA null model), MOLM-13 Cell Proliferation (Compound 51 0.01 μm + Idarubicin 0.5 μM): 0.02 | Effect size (BIGL, HSA null model), MOLM-13 Cell Proliferation (Compound 51 0.01 μm + Midostaurin 0.0012 μM): 0.01 | Effect size (BIGL, HSA null model), MOLM-13 Cell Proliferation (Compound 51 0.01 μm + Midostaurin 0.006 μM): −0.06 | Effect size (BIGL, HSA null model), MOLM-13 Cell Proliferation (Compound 51 0.01 μm + Midostaurin 0.025 μM): 0.1 | Effect size (BIGL, HSA null model), MOLM-13 Cell Proliferation (Compound 51 0.01 μm + Midostaurin 0.05 μM): −0.06 | Effect size (BIGL, HSA null model), MOLM-13 Cell Proliferation (Compound 51 0.01 μm + Midostaurin 0.1 μM): −0.04 | Effect size (BIGL, HSA null model), MOLM-13 Cell Proliferation (Compound 51 0.01 μm + Midostaurin 0.5 μM): −0.02 | Effect size (BIGL, HSA null model), combination with Gilteritinib on MOLM-13 cell proliferation (Compound 51 0.01 μm, Gilteritinib 0.0005 μM): 0.01 | Effect size (BIGL, HSA null model), combination with Gilteritinib on MOLM-13 cell proliferation (Compound 51 0.01 μm, Gilteritinib 0.005 μM): −0.08 | Effect size (BIGL, HSA null model), combination with Gilteritinib on MOLM-13 cell proliferation [1]: −0.25 | maxR call (synergy/antagonism), combination with Gilteritinib on MOLM-13 cell proliferation [1]: ** | Effect size (BIGL, HSA null model), combination with Gilteritinib on MOLM-13 cell proliferation (Compound 51 0.01 μm, Gilteritinib 0.05 μM): −0.09 | Effect size (BIGL, HSA null model), combination with Gilteritinib on MOLM-13 cell proliferation (Compound 51 0.01 μm, Gilteritinib 0.1 μM): 0.1 | Effect size (BIGL, HSA null model), combination with Gilteritinib on MOLM-13 cell proliferation (Compound 51 0.01 μm, Gilteritinib 1 μM): −0.01 | Effect size (BIGL, HSA null model), MOLM-13 Cell Proliferation (Compound 51 0.05 μm + Decitabine 0.0015 μM): −0.03 | Effect size (BIGL, HSA null model), MOLM-13 Cell Proliferation [2]: −0.13 | Synergy/antagonism call (maxR test), MOLM-13 Cell Proliferation [2]: ** | Effect size (BIGL, HSA null model), MOLM-13 Cell Proliferation [3]: −0.32 | Synergy/antagonism call (maxR test), MOLM-13 Cell Proliferation [3]: ** | Effect size (BIGL, HSA null model), MOLM-13 Cell Proliferation (Compound 51 0.05 μm + Decitabine 1.5 μM): −0.05 | Effect size (BIGL, HSA null model), MOLM-13 Cell Proliferation (Compound 51 0.05 μm + Decitabine 3 μM): −0.03 | Effect size (BIGL, HSA null model), MOLM-13 Cell Proliferation (Compound 51 0.05 μm + Idarubicin 0.0005 μM): −0.1 | Effect size (BIGL, HSA null model), MOLM-13 Cell Proliferation [4]: −0.41 | Synergy/antagonism call (maxR test), MOLM-13 Cell Proliferation [4]: ** | Effect size (BIGL, HSA null model), MOLM-13 Cell Proliferation (Compound 51 0.05 μm + Idarubicin 0.0025 μM): −0.23 | Effect size (BIGL, HSA null model), MOLM-13 Cell Proliferation (Compound 51 0.05 μm + Idarubicin 0.005 μM): −0.11 | Effect size (BIGL, HSA null model), MOLM-13 Cell Proliferation (Compound 51 0.05 μm + Idarubicin 0.05 μM): 0.02 | Effect size (BIGL, HSA null model), MOLM-13 Cell Proliferation (Compound 51 0.05 μm + Idarubicin 0.5 μM): 0.02 | Effect size (BIGL, HSA null model), MOLM-13 Cell Proliferation (Compound 51 0.05 μm + Midostaurin 0.0012 μM): −0.03 | Effect size (BIGL, HSA null model), MOLM-13 Cell Proliferation [5]: −0.21 | Synergy/antagonism call (maxR test), MOLM-13 Cell Proliferation [5]: ** | Effect size (BIGL, HSA null model), MOLM-13 Cell Proliferation (Compound 51 0.05 μm + Midostaurin 0.025 μM): −0.14 | Effect size (BIGL, HSA null model), MOLM-13 Cell Proliferation (Compound 51 0.05 μm + Midostaurin 0.05 μM): 0.08 | Effect size (BIGL, HSA null model), MOLM-13 Cell Proliferation (Compound 51 0.05 μm + Midostaurin 0.1 μM): −0.04 | Effect size (BIGL, HSA null model), MOLM-13 Cell Proliferation (Compound 51 0.05 μm + Midostaurin 0.5 μM): −0.02 | Effect size (BIGL, HSA null model), combination with Gilteritinib on MOLM-13 cell proliferation (Compound 51 0.05 μm, Gilteritinib 0.0005 μM): −0.03
